The values that follow come from PMC10218704, “A Novel Blood–Brain Barrier-Penetrating and Vascular-Targeting Chimeric Peptide Inhibits Glioma Angiogenesis” (International Journal of Molecular Sciences, 2023).

Ends that are not written are not given here.

The subject of one data set is VEGFR-2. The format is binding, human. Particulars: peptide 256 and 1000 nmol/L; VEGF-A165 0.5-8 nmol/L; CM5 chip; HBS-EP. The protocol:
To determine the effect of TAT-AT7 in competition with VEGF-A165 binding to VEGFR-2 or NRP-1, the SPR assay was conducted. The whole operation was conducted on a Biacore S200 instrument. The recombinant VEGFR-2 or NRP-1 proteins were firstly immobilized on a CM5 chip by an amine-coupling reaction. VEGF-A165 ligands with gradient concentrations in the absence or presence of different peptides were then flowed over the CM5 chip. The binding of VEGF-A165 ligands to the immobilized recombinant VEGFR-2 or NRP-1 proteins led to an increase of the refractive index on the surface of the chip, which could be converted into the fluctuation of electrical signals in the response (RU). As the concentration of VEGF-A165 was higher, the response value was also higher. However, with the addition of different peptides, the response value decreased to different degrees (Figure 3A and Figure 4A).
(TAT), ATWLPPR (AT7), and […] (TAT-AT7) were synthesized from China Peptides Co., Ltd. (Shanghai, China). The Hoechst 33,258 staining kit, Annexin V-FITC/PI apoptosis detection kit, and BCA protein assay kit were obtained from Beyotime Biotechnology (Nantong, China). The total protein extraction kit was from BestBio (Shanghai, China). The CM5 sensor chip was obtained from GE Healthcare Life Sciences (Uppsala, Sweden). Purified recombinant human VEGFR-2 and NRP-1 receptor proteins were purchased from R&D Systems (Minneapolis, MN, USA). Recombinant human endothelial growth factor-A165 (VEGF-A165) was obtained from PeproTech (Rocky Hill, NJ, USA). Anti-ERK1/2, anti-p-ERK1/2, anti-p-VEGFR-2, anti-AKT, anti-p-AKT, anti-p-SRC, anti-p-FAK, anti-p38 MAPK, anti-p-p38 MAPK, anti-p-PLC-γ, and anti-GAPDH antibodies were purchased from Cell Signaling Technology (Danvers, MA, USA). Anti-VEGFR-2, anti-FAK, and anti-SRC were purchased from Proteintech Group, Inc (Wuhan, China). F-12K medium, heparin, and endothelial cell growth supplement (ECGS) were from Macgene (Beijing, China). DMEM medium and fetal bovine serum (FBS) were obtained from Gibco®, Life Technologies (Carlsbad, CA, USA). […]

Data set [1] deals with zebrafish embryo intersegmental vessel. Description: Zebrafish embryo intersegmental vessel angiogenesis. The format is in vivo. Particulars: 25 µmol/L; 24 h; 28 °C; fluorescence microscope; vs control; n = 3. As for the experimental part: After a certain period, healthy, sexually mature female and male zebrafish were mated in a 1:1 ratio. After 24 h, the fertilized eggs were removed, disinfected, and washed, and then placed in embryo culture water and cultured in an incubator at 28 °C for 24 h. The fertilized eggs were washed with chain enzyme protease E solution (1 mg/mL) to remove the egg membrane on the surface and placed under a microscope to observe and select the normally developing zebrafish embryos, and then placed into a 24-well plate. […] The control group was added with the same volume of embryo culture water, and then placed in an incubator at 28 °C for 24 h. Zebrafish embryos were randomly removed from each group and observed under a fluorescence microscope. The total length of zebrafish internode vessels was calculated and counted.

For data set [2], the system named is intracranial U87-mCherry-luc glioma. Description: In vivo anti-glioma study (bioluminescence). Further details: species or system nude mice. Particulars: 20 mg/kg/day i.v. (tail vein), 11 days; days 4, 7, 11, 14; n = 5. The protocol: The orthotopic U87-mCherry-luc glioma-bearing nude mice were randomly assigned to 6 groups (n = 5) according to the bioluminescence intensity of glioma measured on day 4. […] The bioluminescence intensity was measured on days 4, 7, 11, and 14, respectively. Nude mice were weighed daily. On day 15, the mice were sacrificed, and the glioma-bearing brains were harvested. The brain tissues were fixed with 4.0% paraformaldehyde, embedded in paraffin, and cut into slices. The TUNEL staining and CD31 immunohistochemical staining were conducted according to standard histological procedures.

A further data set has as its system NRP-1. The following applies: for inhibition of binding of VEGF-A165 and NRP-1: peptide 1000 nmol/L.
The conditions of data set [3]: compared with TAT or AT7 alone; cited from earlier work. The source says:
Intracranial delivery of therapeutic agents is primarily hindered by the BBB [24]. The intercellular tight junction caused by the BBB restricts the passive diffusion of almost all large-molecule and more than 98% of small-molecule drugs from peripheral blood circulation to the brain tissue. TAT ([…]), one of the most promising cationic cell-penetrating peptides (CPPs), has been widely applied in drug delivery due to its high efficiency to facilitate the tissue penetration and internalization of cargos and break through a variety of biological barriers, such as cell membrane ...

Data set [4] relates to VEGF-induced rabbit corneal angiogenesis. The following applies: cited from earlier work. An excerpt: Most peptides and proteins are usually functional and efficacious signaling molecules that naturally exist or are synthesized by artificial methods. Compared with proteins, peptides have higher tissue permeability, protease hydrolysis tolerability, and lower production costs. Furthermore, the pharmacological functions of peptides are easier to be improved by modification strategies, whereas their intrinsic properties are rarely affected. […] ATWLPPR (AT7), which was identified by a mutated phage lib ...

Setting [5] is: VEGF-A165 0.5-8 nmol/L, CM5 chip, HBS-EP.

Procedure for NRP-1: The SPR assay was performed using the Biacore S200 instrument (GE Healthcare, Uppsala, Sweden). Firstly, the CM5 sensor chip was activated with EDC/NHS. Then, the recombinant VEGFR-2 and NRP-1 proteins were immobilized on the surface of the sensor chip according to the operating instructions of amine coupling. VEGF-A165 was diluted to 8, 4, 2, 1, and 0.5 nmol/L in different concentrations of peptide solution dissolved by HBS-EP buffer (0, 0.016, 0.064, 0.256, and 1 μmol/L, respectively). The Kinetics/Affinity program was selected, and the automatic continuous injection program was set. The injection flow rate was 30 μL/min, the injection time was 120 s, and the dissociation time was 220 s. At the same time, zero-concentration injection wells and 0.5 nmol/L repeat-concentration injection wells of VEGF-A165 were set. At the end of each injection, the channels were flushed with glycine-HCl solution for 30 s until response values were returned to baseline.

With `CC(C)C[C@H](NC(=O)[C@H](Cc1c[nH]c2ccccc12)NC(=O)[C@@H](NC(=O)[C@H](C)NC(=O)[C@H](CS)NC(=O)[C@H](CCCNC(=N)N)NC(=O)[C@H](CCCNC(=N)N)NC(=O)[C@H](CCCNC(=N)N)NC(=O)[C@H](CCC(N)=O)NC(=O)[C@H](CCCNC(=N)N)NC(=O)[C@H](CCCNC(=N)N)NC(=O)[C@H](CCCCN)NC(=O)[C@H](CCCCN)NC(=O)[C@@H](N)CCCNC(=N)N)[C@@H](C)O)C(=O)N1CCC[C@H]1C(=O)N1CCC[C@H]1C(=O)N[C@@H](CCCNC(=N)N)C(=O)O` [TAT-AT7], the “effect on VEGF-A165 and VEGFR-2 binding (RU)” value in the data set with VEGFR-2 was “significantly reduced the RU value”. Besides, the intersegmental vascular growth entry in data set [1] was “significantly inhibit the generation of the zebrafish embryo intersegmental vessel”. Further, the “glioma growth (bioluminescence)” value in data set [2] is “significantly suppressed glioma growth on days 11 and 14”. For the same molecule, the “inhibition of VEGF-A165 binding to NRP-1 relative to VEGFR-2” value with NRP-1 (SPR, NRP-1 compared with VEGFR-2) is reported as “stronger inhibitory effect on the binding of VEGF-A165 to NRP-1”. Besides, in the data set on NRP-1 (setting [5]), the “inhibitory effect on VEGF-A165/NRP-1 binding, comparison between peptides” value was “much higher than that of AT7 and TAT”; the “inhibition of binding of VEGF-A165 and NRP-1” value was “completely inhibited the binding of VEGF-A165 and NRP-1”. In addition, the “binding curve of VEGF-A165 and NRP-1” value in the data set with NRP-1 (peptide 256 nmol/L, VEGF-A165 0.5-8 nmol/L, CM5 chip, HBS-EP) was “tended to be a zero baseline”. Further, in data set [3], the BBB-penetration capability entry is given as “stronger BBB-penetration capabilities”.
On to ATWLPPR [AT7, ATWLPPR], for which the “effect on VEGF-A165 and VEGFR-2 binding (RU)” value with VEGFR-2 is “less inhibitory effects on VEGF-A165 and VEGFR-2 binding than TAT-AT7”. In addition, in data set [1], the intersegmental vascular growth entry is given as “no obvious effect on intersegmental vascular growth”. The “glioma growth (bioluminescence)” value in data set [2] is reported as “no significant difference compared to the control group”. For the same molecule, in the data set with NRP-1 (setting [5]), the “inhibition of binding of VEGF-A165 and NRP-1” value is “displayed inhibitory effects on the binding of VEGF-A165 and NRP-1, but it did not completely inhibit the binding”. Moreover, the “effect on VEGF-induced rabbit corneal angiogenesis” value in data set [4] is “inhibitory effect on VEGF-induced rabbit corneal angiogenesis”.
